{"source": "patent US20040266623A1", "about": "“SYNERGISTIC QUINCLORAC HERBICIDAL COMPOSITIONS” (priority 2003, published 2004)", "test_in_all_cases": "Greenhouse pot test, postemergent spray, visual control rating converted to percent control", "format_in_all_cases": "in vivo", "key": {"white clover": {"system": "white clover", "conditions": "for Control (1-9) Clover: scale 1=no control, 9=death of plant", "outline": "(§1)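 Greenhouse pots in soilless medium receive a 43.46 gal/acre spray. Control is scored visually at 24, 48, 72 HAT and 7, 14, 21 DAT, 1–9 scale converted to percent.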"}, "crabgrass": {"system": "crabgrass", "conditions": "for Control (1-9) Crabgrass: scale 1=no control, 9=death of plant", "outline": "as §1"}, "plantain": {"system": "plantain", "conditions": "for Control (1-9) Plantain: scale 1=no control, 9=death of plant", "outline": "as §1"}, "dandelion": {"system": "dandelion", "conditions": "for Control (1-9) Dandelion: scale 1=no control, 9=death of plant", "outline": "as §1"}}}
{"smiles": "Cc1nn(-c2cc(NS(C)(=O)=O)c(Cl)cc2Cl)c(=O)n1C(F)F", "note": "[Sulfentrazone @ 0.02 lbs/A]", "values": [{"measurement": "% Control Clover", "setting": "white clover; Test 3, 7 DAT", "value": 33.3, "unit": "%"}, {"measurement": "Control (1-9) Clover", "setting": "white clover; Test 3, 7 DAT", "value": 3}, {"measurement": "% Control Clover", "setting": "white clover; Test 3, 14 DAT", "value": 44.4, "unit": "%"}, {"measurement": "Control (1-9) Clover", "setting": "white clover; Test 3, 14 DAT", "value": 4}, {"measurement": "% Control Clover", "setting": "white clover; Test 3, 21 DAT", "value": 44.4, "unit": "%"}, {"measurement": "Control (1-9) Clover", "setting": "white clover; Test 3, 21 DAT", "value": 4}, {"measurement": "% Control Clover", "setting": "white clover; Test 3, 24 HAT", "value": 33.3, "unit": "%"}, {"measurement": "Control (1-9) Clover", "setting": "white clover; Test 3, 24 HAT", "value": 3}, {"measurement": "% Control Clover", "setting": "white clover; Test 3, 72 HAT", "value": 22.2, "unit": "%"}, {"measurement": "Control (1-9) Clover", "setting": "white clover; Test 3, 72 HAT", "value": 2}, {"measurement": "% Control Crabgrass", "setting": "crabgrass; Test 3, 7 DAT", "value": 44.4, "unit": "%"}, {"measurement": "Control (1-9) Crabgrass", "setting": "crabgrass; Test 3, 7 DAT", "value": 4}, {"measurement": "% Control Crabgrass", "setting": "crabgrass; Test 3, 14 DAT", "value": 44.4, "unit": "%"}, {"measurement": "Control (1-9) Crabgrass", "setting": "crabgrass; Test 3, 14 DAT", "value": 4}, {"measurement": "% Control Crabgrass", "setting": "crabgrass; Test 3, 21 DAT", "value": 33.3, "unit": "%"}, {"measurement": "Control (1-9) Crabgrass", "setting": "crabgrass; Test 3, 21 DAT", "value": 3}, {"measurement": "% Control Crabgrass", "setting": "crabgrass; Test 3, 24 HAT", "value": 11.1, "unit": "%"}, {"measurement": "Control (1-9) Crabgrass", "setting": "crabgrass; Test 3, 24 HAT", "value": 1}, {"measurement": "% Control Crabgrass", "setting": "crabgrass; Test 3, 72 HAT", "value": 22.2, "unit": "%"}, {"measurement": "Control (1-9) Crabgrass", "setting": "crabgrass; Test 3, 72 HAT", "value": 2}, {"measurement": "% Control Plantain", "setting": "plantain; Test 3, 7 DAT", "value": 100.0, "unit": "%"}, {"measurement": "Control (1-9) Plantain", "setting": "plantain; Test 3, 7 DAT", "value": 9}, {"measurement": "% Control Plantain", "setting": "plantain; Test 3, 14 DAT", "value": 100.0, "unit": "%"}, {"measurement": "Control (1-9) Plantain", "setting": "plantain; Test 3, 14 DAT", "value": 9}, {"measurement": "% Control Plantain", "setting": "plantain; Test 3, 21 DAT", "value": 100.0, "unit": "%"}, {"measurement": "Control (1-9) Plantain", "setting": "plantain; Test 3, 21 DAT", "value": 9}, {"measurement": "% Control Plantain", "setting": "plantain; Test 3, 24 HAT", "value": 44.4, "unit": "%"}, {"measurement": "Control (1-9) Plantain", "setting": "plantain; Test 3, 24 HAT", "value": 4}, {"measurement": "% Control Plantain", "setting": "plantain; Test 3, 72 HAT", "value": 88.9, "unit": "%"}, {"measurement": "Control (1-9) Plantain", "setting": "plantain; Test 3, 72 HAT", "value": 8}, {"measurement": "% Control Dandelion", "setting": "dandelion; Test 3, 7 DAT", "value": 44.4, "unit": "%"}, {"measurement": "Control (1-9) Dandelion", "setting": "dandelion; Test 3, 7 DAT", "value": 4}, {"measurement": "% Control Dandelion", "setting": "dandelion; Test 3, 14 DAT", "value": 77.8, "unit": "%"}, {"measurement": "Control (1-9) Dandelion", "setting": "dandelion; Test 3, 14 DAT", "value": 7}, {"measurement": "% Control Dandelion", "setting": "dandelion; Test 3, 21 DAT", "value": 66.7, "unit": "%"}, {"measurement": "Control (1-9) Dandelion", "setting": "dandelion; Test 3, 21 DAT", "value": 6}, {"measurement": "% Control Dandelion", "setting": "dandelion; Test 3, 24 HAT", "value": 33.3, "unit": "%"}, {"measurement": "Control (1-9) Dandelion", "setting": "dandelion; Test 3, 24 HAT", "value": 3}, {"measurement": "% Control Dandelion", "setting": "dandelion; Test 3, 72 HAT", "value": 33.3, "unit": "%"}, {"measurement": "Control (1-9) Dandelion", "setting": "dandelion; Test 3, 72 HAT", "value": 3}]}
{"smiles": "Cc1nn(-c2cc(NS(C)(=O)=O)c(Cl)cc2Cl)c(=O)n1C(F)F", "note": "[Sulfentrazone @ 0.03 lbs/A]", "values": [{"measurement": "% Control Clover", "setting": "white clover; Test 3, 7 DAT", "value": 44.4, "unit": "%"}, {"measurement": "Control (1-9) Clover", "setting": "white clover; Test 3, 7 DAT", "value": 4}, {"measurement": "% Control Clover", "setting": "white clover; Test 3, 14 DAT", "value": 55.6, "unit": "%"}, {"measurement": "Control (1-9) Clover", "setting": "white clover; Test 3, 14 DAT", "value": 5}, {"measurement": "% Control Clover", "setting": "white clover; Test 3, 21 DAT", "value": 55.6, "unit": "%"}, {"measurement": "Control (1-9) Clover", "setting": "white clover; Test 3, 21 DAT", "value": 5}, {"measurement": "% Control Clover", "setting": "white clover; Test 3, 24 HAT", "value": 22.2, "unit": "%"}, {"measurement": "Control (1-9) Clover", "setting": "white clover; Test 3, 24 HAT", "value": 2}, {"measurement": "% Control Clover", "setting": "white clover; Test 3, 72 HAT", "value": 33.3, "unit": "%"}, {"measurement": "Control (1-9) Clover", "setting": "white clover; Test 3, 72 HAT", "value": 3}, {"measurement": "% Control Crabgrass", "setting": "crabgrass; Test 3, 7 DAT", "value": 55.6, "unit": "%"}, {"measurement": "Control (1-9) Crabgrass", "setting": "crabgrass; Test 3, 7 DAT", "value": 5}, {"measurement": "% Control Crabgrass", "setting": "crabgrass; Test 3, 14 DAT", "value": 55.6, "unit": "%"}, {"measurement": "Control (1-9) Crabgrass", "setting": "crabgrass; Test 3, 14 DAT", "value": 5}, {"measurement": "% Control Crabgrass", "setting": "crabgrass; Test 3, 21 DAT", "value": 44.4, "unit": "%"}, {"measurement": "Control (1-9) Crabgrass", "setting": "crabgrass; Test 3, 21 DAT", "value": 4}, {"measurement": "% Control Crabgrass", "setting": "crabgrass; Test 3, 24 HAT", "value": 11.1, "unit": "%"}, {"measurement": "Control (1-9) Crabgrass", "setting": "crabgrass; Test 3, 24 HAT", "value": 1}, {"measurement": "% Control Crabgrass", "setting": "crabgrass; Test 3, 72 HAT", "value": 44.4, "unit": "%"}, {"measurement": "Control (1-9) Crabgrass", "setting": "crabgrass; Test 3, 72 HAT", "value": 4}, {"measurement": "% Control Plantain", "setting": "plantain; Test 3, 7 DAT", "value": 88.9, "unit": "%"}, {"measurement": "Control (1-9) Plantain", "setting": "plantain; Test 3, 7 DAT", "value": 8}, {"measurement": "% Control Plantain", "setting": "plantain; Test 3, 14 DAT", "value": 88.9, "unit": "%"}, {"measurement": "Control (1-9) Plantain", "setting": "plantain; Test 3, 14 DAT", "value": 8}, {"measurement": "% Control Plantain", "setting": "plantain; Test 3, 21 DAT", "value": 100.0, "unit": "%"}, {"measurement": "Control (1-9) Plantain", "setting": "plantain; Test 3, 21 DAT", "value": 9}, {"measurement": "% Control Plantain", "setting": "plantain; Test 3, 24 HAT", "value": 44.4, "unit": "%"}, {"measurement": "Control (1-9) Plantain", "setting": "plantain; Test 3, 24 HAT", "value": 4}, {"measurement": "% Control Plantain", "setting": "plantain; Test 3, 72 HAT", "value": 66.7, "unit": "%"}, {"measurement": "Control (1-9) Plantain", "setting": "plantain; Test 3, 72 HAT", "value": 6}, {"measurement": "% Control Dandelion", "setting": "dandelion; Test 3, 7 DAT", "value": 66.7, "unit": "%"}, {"measurement": "Control (1-9) Dandelion", "setting": "dandelion; Test 3, 7 DAT", "value": 6}, {"measurement": "% Control Dandelion", "setting": "dandelion; Test 3, 14 DAT", "value": 77.8, "unit": "%"}, {"measurement": "Control (1-9) Dandelion", "setting": "dandelion; Test 3, 14 DAT", "value": 7}, {"measurement": "% Control Dandelion", "setting": "dandelion; Test 3, 21 DAT", "value": 77.8, "unit": "%"}, {"measurement": "Control (1-9) Dandelion", "setting": "dandelion; Test 3, 21 DAT", "value": 7}, {"measurement": "% Control Dandelion", "setting": "dandelion; Test 3, 24 HAT", "value": 33.3, "unit": "%"}, {"measurement": "Control (1-9) Dandelion", "setting": "dandelion; Test 3, 24 HAT", "value": 3}, {"measurement": "% Control Dandelion", "setting": "dandelion; Test 3, 72 HAT", "value": 55.6, "unit": "%"}, {"measurement": "Control (1-9) Dandelion", "setting": "dandelion; Test 3, 72 HAT", "value": 5}]}
